The values that follow come from patent publication US11697636B2, “Substituted benzamides” (Hoffmann-La Roche Inc., priority 2009, dated 2023).

Where a name gives a salt, the structure may show the parent alone.

For this assay, the target named is mouse TAAR1 (Mus musculus (Mouse), UniProt Q923Y8). As to the kind of experiment: Radioligand binding assay on mouse TAAR1. To be noted: mouse TAAR1, HEK-293 membranes; first value of mouse/rat pair. On the procedure:
For the construction of expression plasmids the coding sequences of human, rat and mouse TAAR 1 were amplified from genomic DNA essentially as described by Lindemann et al.. […] PCR products were subcloned into the pIRESneo2 vector (BD Clontech, Palo Alto, Calif.), and expression vectors were sequence verified before introduction in cell lines.
HEK293 cells (ATCC #CRL-1573) were cultured essentially as described by Lindemann et al. (2005). […] After a culture period of about 10 d clones were isolated, expanded and tested for responsiveness to trace amines (all compounds purchased from Sigma) with the cAMP Biotrak Enzyme immunoassay (EIA) System (Amersham) following the non-acetylation EIA procedure provided by the manufacturer.
Radioligand Binding Assay on Mouse TAAR1
Membrane Preparation and Radioligand Binding.
HEK-293 cells stably expressing mouse TAAR1 were maintained at 37° C. and 5% CO2 in DMEM high glucose medium, containing fetal calf serum (10%, heat inactivated for 30 min at 56° C.), penicillin/streptomycin (1%), and 375 μg/ml geneticin (Gibco). Cells were released from culture flasks using trypsin/EDTA, harvested, washed twice with ice-cold PBS (without Ca^2+ and Mg^2+), pelleted at 1′000 rpm for 5 min at 4° C., frozen and stored at −80° C. […] With each new membrane batch the dissociation constant (Kd) was determined via a saturation curve. […]

mouse TAAR1, sequence (Q923Y8 whole entry): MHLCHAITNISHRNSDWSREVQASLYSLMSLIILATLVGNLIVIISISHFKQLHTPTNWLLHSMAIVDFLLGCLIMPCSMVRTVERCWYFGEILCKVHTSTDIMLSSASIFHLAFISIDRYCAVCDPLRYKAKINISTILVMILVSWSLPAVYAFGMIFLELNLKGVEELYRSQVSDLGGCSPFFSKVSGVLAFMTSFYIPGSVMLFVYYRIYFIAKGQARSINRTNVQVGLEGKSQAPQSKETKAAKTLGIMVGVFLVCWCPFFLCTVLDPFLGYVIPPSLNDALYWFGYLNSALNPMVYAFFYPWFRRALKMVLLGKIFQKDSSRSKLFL

In the case of `O=C(Nc1ccccc1)Nc1ccc(C2CCNC2)cc1` (racemic) [Example 6, (RS)-1-Phenyl-3-(4-pyrrolidin-3-yl-phenyl)-urea hydrochloride], the Ki is 32 µM.

What is called Ki is a dissociation constant, usually derived from enzyme kinetics or from competition with a known ligand. Read a high Ki as weaker binding.
